Activity calls are given as the source filed them. The calls are words filed in the database; no cut-off is given here.
Key:
MGC-803 [1] = experiment: Induction of apoptosis in human MGC-803 cells assessed as viable cells at 10 uM incubated for 48 hrs by annexin V FITC/propidium iodide staining based flow cytometry (reference value: 94.4 %); format: functional; details: read-out: Activity
HGC-27 [2] = experiment: Induction of apoptosis in human HGC-27 cells assessed as reduction in caspase-9 level incubated for 48 hrs by Western blot analysis; format: functional, cell-based; details: dose 0.1-8 µM, DDE = dose-dependent effect
[3] = Half life in Sprague-Dawley rat at 100 mg/kg, po measured up to 24 hrs by LC-MS/MS analysis; format: ADME, organism-based; details: in vivo
HGC-27 [4] = experiment: Induction of apoptosis in human HGC-27 cells assessed as viable cells at 2 uM incubated for 48 hrs by annexin V FITC/propidium iodide staining based flow cytometry (reference value: 93.0 %); format: functional; details: read-out: Activity
HGC-27 [5] = experiment: Induction of apoptosis in human HGC-27 cells assessed as reduction in caspase-3 level incubated for 48 hrs by Western blot analysis; format: functional, cell-based; details: dose 0.1-8 µM, DDE = dose-dependent effect
HGC-27 [6] = experiment: Antiproliferative activity against human HGC-27 cells measured after 24 hrs by […]; format: functional, cell-based; details: HGC-27, 24 h
MGC-803 [7] = experiment: Induction of morphological changes in human MGC-803 cells assessed as chromatin condensation incubated for 36 hrs by Giemsa staining based microscopic analysis; format: functional, cell-based; details: dose 2.5-20 µM
[8] = Cmax in Sprague-Dawley rat at 100 mg/kg, po measured up to 24 hrs by LC-MS/MS analysis; format: ADME, organism-based; parameters: dose 100 mg/kg, time < 24 hrs, route po; details: in vivo
MGC-803 [9] = experiment: Induction of apoptosis in human MGC-803 cells assessed as early apoptotic cells at 5 uM incubated for 48 hrs by annexin V FITC/propidium iodide staining based flow cytometry (reference value: 0.42 %); format: functional
HGC-27 [10] = experiment: Inhibition of cell migration in human HGC-27 cells measured after 24 hrs by wound healing assay; format: functional, cell-based; details: dose 0.05-2 µM, DDE = dose-dependent effect
[11] = AUC (0 to t) in Sprague-Dawley rat at 100 mg/kg, po measured up to 24 hrs by LC-MS/MS analysis; format: ADME, organism-based; parameters: dose 100 mg/kg, time < 24 hrs, route po; details: in vivo
MGC-803 [12] = experiment: Induction of apoptosis in human MGC-803 cells assessed as late apoptotic cells at 10 uM incubated for 48 hrs by annexin V FITC/propidium iodide staining based flow cytometry (reference value: 4.07 %); format: functional
HGC-27 [13] = experiment: Induction of apoptosis in human HGC-27 cells assessed as late apoptotic cells at 0.5 uM incubated for 48 hrs by annexin V FITC/propidium iodide staining based flow cytometry (reference value: 5.14 %); format: functional
MGC-803 [14] = experiment: Induction of apoptosis in human MGC-803 cells assessed as necrotic cells at 10 uM incubated for 48 hrs by annexin V FITC/propidium iodide staining based flow cytometry (reference value: 1.06 %); format: functional
MGC-803 [15] = experiment: Induction of apoptosis in human MGC-803 cells assessed as viable cells at 5 uM incubated for 48 hrs by annexin V FITC/propidium iodide staining based flow cytometry (reference value: 94.4 %); format: functional; details: read-out: Activity
HGC-27 [16] = experiment: Induction of cell cycle arrest in human HGC-27 cells assessed as downregulation of CDK2 expression incubated for 48 hrs by Western blot analysis; format: functional, cell-based; details: dose 0.1-8 µM
MGC-803 [17] = experiment: Anti-invasion activity against human MGC-803 cells assessed as inhibition of invasion incubated for 24 hrs by transwell invasion assay; format: functional, cell-based; details: dose 1.25-10 µM, DDE = dose-dependent effect
MGC-803 [18] = experiment: Induction of apoptosis in human MGC-803 cells assessed as late apoptotic cells at 5 uM incubated for 48 hrs by annexin V FITC/propidium iodide staining based flow cytometry (reference value: 4.07 %); format: functional
HGC-27 [19] = experiment: Induction of cell cycle arrest in human HGC-27 cells assessed as downregulation of cyclin A expression incubated for 48 hrs by Western blot analysis; format: functional, cell-based; details: dose 0.1-8 µM
HGC-27 [20] = experiment: Induction of cell cycle arrest in human HGC-27 cells assessed as downregulation of cyclin B1 expression incubated for 48 hrs by Western blot analysis; format: functional, cell-based; details: dose 0.1-8 µM
MGC-803 [21] = experiment: Induction of morphological changes in human MGC-803 cells assessed as cytomembrane foaming incubated for 36 hrs by Giemsa staining based microscopic analysis; format: functional, cell-based; details: dose 2.5-20 µM
MGC-803 [22] = experiment: Induction of apoptosis in human MGC-803 cells assessed as early apoptotic cells at 10 uM incubated for 48 hrs by annexin V FITC/propidium iodide staining based flow cytometry (reference value: 0.42 %); format: functional
HGC-27 [23] = experiment: Induction of apoptosis in human HGC-27 cells assessed as early apoptotic cells at 8 uM incubated for 48 hrs by annexin V FITC/propidium iodide staining based flow cytometry (reference value: 0.66 %); format: functional
MGC-803 [24] = experiment: Inhibition of cell migration in human MGC-803 cells measured after 24 hrs by wound healing assay; format: functional, cell-based; details: dose 1.25-10 µM, DDE = dose-dependent effect
HGC-27 [25] = experiment: Induction of apoptosis in human HGC-27 cells assessed as reduction in Bcl-2 level incubated for 48 hrs by Western blot analysis; format: functional, cell-based; details: dose 0.1-8 µM, DDE = dose-dependent effect
HGC-27 [26] = experiment: Induction of morphological changes in human HGC-27 cells assessed as cytomembrane foaming incubated for 36 hrs by Giemsa staining based microscopic analysis; format: functional, cell-based; details: dose 0.1-8 µM
HGC-27 [27] = experiment: Induction of cell cycle arrest in human HGC-27 cells assessed as downregulation of CDK1 expression incubated for 48 hrs by Western blot analysis; format: functional, cell-based; details: dose 0.1-8 µM
HGC-27 [28] = experiment: Induction of morphological changes in human HGC-27 cells assessed as chromatin condensation incubated for 36 hrs by Giemsa staining based microscopic analysis; format: functional, cell-based; details: dose 0.1-8 µM
[29] = Tmax in Sprague-Dawley rat at 100 mg/kg, po measured up to 24 hrs by LC-MS/MS analysis; format: ADME, organism-based; details: in vivo
HGC-27 [30] = experiment: Induction of apoptosis in human HGC-27 cells assessed as upregulation in cleaved caspase-3 expression at 0.5 to 8 uM incubated for 48 hrs by Western blot analysis; format: functional, cell-based; details: dose 0.5-8 µM
MGC-803 [31] = experiment: Induction of apoptosis in human MGC-803 cells assessed as necrotic cells at 5 uM incubated for 48 hrs by annexin V FITC/propidium iodide staining based flow cytometry (reference value: 1.06 %); format: functional
HGC-27 [32] = experiment: Anti-invasion activity against human HGC-27 cells assessed as inhibition of invasion incubated for 24 hrs by transwell invasion assay; format: functional, cell-based; details: dose 0.05-2 µM, DDE = dose-dependent effect
[33] = MRT (0 to t) in Sprague-Dawley rat at 100 mg/kg, po measured up to 24 hrs by LC-MS/MS analysis; format: ADME, organism-based; details: in vivo
HGC-27 [34] = experiment: Induction of apoptosis in human HGC-27 cells assessed as early apoptotic cells at 0.4 uM incubated for 48 hrs by annexin V FITC/propidium iodide staining based flow cytometry (reference value: 0.66 %); format: functional
[35] = Toxicity in BALB/c mouse xenografted with human HGC-27 cells assessed as mean corpuscular volume at 150 mg/kg, po bid for 19 days; format: organism-based; details: in vivo, 456 h, time 19 day
HGC-27 [36] = experiment: Induction of apoptosis in human HGC-27 cells assessed as upregulation in cleaved caspase-9 expression at 0.1 to 1.6 uM incubated for 48 hrs by Western blot analysis; format: functional, cell-based; details: dose 0.1-1.6 µM
HGC-27 [37] = experiment: Induction of apoptosis in human HGC-27 cells assessed as upregulation in cytochrome c expression at 0.1 to 1.6 uM incubated for 48 hrs by Western blot analysis; format: functional, cell-based; details: dose 0.1-1.6 µM
HGC-27 [38] = experiment: Induction of apoptosis in human HGC-27 cells assessed as viable cells at 0.1 uM incubated for 48 hrs by annexin V FITC/propidium iodide staining based flow cytometry (reference value: 93.0 %); format: functional; details: read-out: Activity

Compound | viability at 10 µM (MGC-803 [1]) [%] | Activity (HGC-27 [2]) | half-life [3] [h] | Activity (HGC-27 [5]) | IC50 (HGC-27 [6]) [nM] | Activity (MGC-803 [7]) | Cmax [8] [ng/mL] | Activity (MGC-803 [9]) [%] | inhibition (HGC-27 [10]) | AUC(0-t) at 24 h [11] [ng·h/mL] | Activity (MGC-803 [12]) [%] | Activity (MGC-803 [14]) [%] | viability at 5 µM (MGC-803 [15]) [%] | Activity (HGC-27 [16]) | Activity (MGC-803 [17]) | Activity (MGC-803 [18]) [%] | Activity (HGC-27 [19]) | Activity (HGC-27 [20]) | Activity (MGC-803 [21]) | Activity (MGC-803 [22]) [%] | also measured
O=C(NCc1ccc(NC(=O)c2ccccc2N2CCCC2)cc1)OCc1cccnc1 | 59.4 | Dde | 1.56 | Dde | 1840 | Active | 4090 | 15.5 | Dde | 4720 | 18.2 | 3.27 | 65 | Active | Dde | 17 | Active | Active | Active | 19.1 | viability at 2 µM (HGC-27 [4]): 30.4%; Activity (HGC-27 [13]): 17.4%; Activity (HGC-27 [23]): 3.68%; inhibition (MGC-803 [24]): Dde; Activity (HGC-27 [25]): Dde; Activity (HGC-27 [26]): Active; Activity (HGC-27 [27]): Active; Activity (HGC-27 [28]): Active; Tmax [29]: 0.5 h; Activity (HGC-27 [30]): Active; Activity (MGC-803 [31]): 2.47%; Activity (HGC-27 [32]): Dde; MRT last at 24 h [33]: 1.88 h
O=C(NCc1ccc(NC(=O)c2cc(F)ccc2N2CCCC2)cc1)OCc1cccnc1 | 82 | Dde | 2.5 | Dde | 280 | Active | 3980 | 3.23 | Dde | 7310 | 8.86 | 1.84 | 81.1 | Active | Dde | 10.4 | Active | Active | Active | 7.31 | Activity (HGC-27 [34]): 2.63%; Activity [35]: 49.83 fL; Activity (HGC-27 [36]): Active; Activity (HGC-27 [37]): Active; inhibition (MGC-803 [24]): Dde; Activity (HGC-27 [25]): Dde; Activity (HGC-27 [26]): Active; Activity (HGC-27 [27]): Active; Activity (HGC-27 [28]): Active; Tmax [29]: 1.2 h; Activity (MGC-803 [31]): 5.22%; viability at 0.1 µM (HGC-27 [38]): 83.5%; Activity (HGC-27 [32]): Dde; MRT last at 24 h [33]: 4.25 h
